Patent publication US20250250265A1, “BENZOTHIAZOLE-PHENYLSULFONYL-PIPERIDINE ANALOGS AS ACTIVATORS OF NACYLPHOSPHATIDYLETHANOLAMINE HYDROLYZING PHOSPHOLIPASE D” (priority 2022, published 2025)
pEC50: −log10 of the molar value. Entries after “also recorded” stand apart in the source; their conditions may differ. Read-outs that look alike come from different tables or passages of the source.

How the values were obtained:
[1] = target: T1, NAPE-PLD activity of RAW264.7 macrophages (Mus musculus, UniProt Q8BH82); assay: Cell-based NAPE-PLD activity in RAW264.7 macrophages (PED-A1 with orlistat); conditions: for 10 μM Mϕ % NAPE-PLD activity: Table 2, 10 μM compound, vehicle = 100%; for In-cell NAPE-PLD activity in RAW 264.7 (10 μM) with PED-A1 or flame-NAPE as substrate: Table 3; for effect on NAPE-PLD activity in RAW264.7 cells: graded concentrations (FIG. 17A); for Emax, Nape-pld activity in RAW264.7 cells: FIG. 17A, PED-A1
T1 construct: endogenous in cells; host or cells: RAW264.7
T1 sequence (Q8BH82 1-396): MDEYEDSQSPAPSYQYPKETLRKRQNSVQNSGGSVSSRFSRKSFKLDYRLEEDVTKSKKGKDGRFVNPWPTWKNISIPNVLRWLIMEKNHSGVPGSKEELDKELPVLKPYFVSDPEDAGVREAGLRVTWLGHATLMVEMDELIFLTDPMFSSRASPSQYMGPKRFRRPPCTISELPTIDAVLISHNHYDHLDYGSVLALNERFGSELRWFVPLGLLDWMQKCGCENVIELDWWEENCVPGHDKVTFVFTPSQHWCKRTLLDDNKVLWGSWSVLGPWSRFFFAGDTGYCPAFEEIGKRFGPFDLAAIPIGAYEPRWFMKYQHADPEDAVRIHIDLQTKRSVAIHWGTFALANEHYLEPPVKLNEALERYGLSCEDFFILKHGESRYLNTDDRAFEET
Protocol: NAPE-PLD activity was measured in cells as previously described, except that FluoroBrite DMEM (Gibco A1896701) was used as media. See Zarrow et al., J. Lipid Res. 63(1): 100156 (2022). For RAW264.7 assays, PED-A1 (3.6 μM final) was used as the substrate with 10 μM orlistat added to inhibit PLA1 activity, while for HepG2 cells, flame-NAPE was used (with no orlistat added).

[2] = target: T2, recombinant mouse NAPE-PLD (Mus musculus, UniProt Q8BH82); assay: In vitro fluorescence NAPE-PLD activity assay (HTS/CRC) with recombinant mouse NAPE-PLD and PED-A1; format: biochemical; conditions: for Emax (95% Cl): Table 4, maximal efficacy as fold increase in NAPE-PLD activity versus vehicle only; for bAC175: compound concentration to induce 175% basal activity; for Max % bA (%): maximum induced activity compared to basal (100%) activity
T2 construct: hexahistidine (His6) (C); made in house; host or cells: E. coli
T2 sequence (Q8BH82 1-396): T1 sequence (Q8BH82 1-396)
Protocol: Using the fluorogenic NAPE substrate, PED-A1, and recombinant mouse NAPE-PLD (rNAPE-PLD), an in vitro high-throughput (HTS) assay was conducted to screen ˜40,000 compounds for their ability to modulate NAPE-PLD activity. The HTS assay enabled the detection of both NAPE-PLD activators and inhibitors. […] Initial structure-activity response studies with the top hits identified benzothiazole phenylsulfonyl-piperidine carboxamide analogs (BT-PSP analogs) as lead compounds for NAPE-PLD activators (Table 1). The lead BT-PSP analog identified, VU534, induces 50% of its activation effect on NAPE-PLD at 270 nM (AC50 270 nM), and induces a maximal effect of 195% of basal NAPE-PLD activity (Table 1).
In vitro fluorescence NAPE-PLD activity assays using recombinant NAPE-PLD and either PED-A1 or flame-NAPE as fluorogenic substrate were performed as previously described except with small modifications as noted below. See Aggarwal et al., J. Biol. Chem. 295(21): 7289-7300 (2020); Zarrow et al., J. Lipid Res. 63(1): 100156 (2022).
For the HTS assays, test compounds were incubated with recombinant enzyme for 1 h prior to adding PED-A1 (final 0.4 μM) mixed with N-palmitoyl-dioleoyl-PE (final 3.6 μM) to adjust for the high sensitivity of the Panoptic instrument (WaveFront Biosciences). Assays used black-wall, clear-bottom, non-sterile, and non-treated 384-well plates (Greiner Bio-One 781906). The assay was read in kinetic fluorescence mode on the Panoptic instrument for 4 min and the slope of the signal from 30-100 s was used for analysis. A total of 39,328 compounds from the Vanderbilt Discovery Collection were tested, each at 10 μM. The tested compounds were chosen to represent a structurally diverse selection from the full library. Each 384-well plate included 320 test compound wells and 64 control wells. Unlike previous pilot screening assays, bithionol (10 μM final) was used in place of lithocholic acid (100 μM final) as the inhibitor control. Before performing high-throughput screening, a checkerboard assay was performed to validate the assay parameters. This yielded a Z′ score of 0.676. Z′ scores were also calculated for each plate during screening, and plates with scores <0.5 were re-run. The average Z′ across all screening plates was 0.52, and the total hit rate was 3.6%. B-scores were calculated from the initial slopes across each plate using WaveGuide software (WaveFront Biosiences). Modulator hits were defined as compounds with absolute B-scores of 3 or higher. The number of compounds in various B-score ranges were as follows: […], 12 compounds; −10 to −5, 221 compounds; −5 to −3, 770 compounds; −3 to 3, 37924 compounds; 3 to 4, 314 compounds; 4 to 6, 70 compounds; 6 to 10, 15 compounds. Activator hits with B-scores of >3 were selected for the replication assay and a selection of analogs of the activators.
Concentration response curve (CRC) experiments used the same assay conditions as the HTS assay, except that graded concentrations of each test compound were used, with total amount of vehicle (DMSO) kept constant. CRC experiments with purified recombinant mouse NAPE-PLD were performed on two separate days, with values from each day normalized to vehicle only controls on same plate, and then all normalized values from both days averaged together. CRC experiments with human NAPE-PLD represent value from only a single day, due to limited amounts of this recombinant enzyme.

[3] = system: RAW264.7 mouse macrophages; assay: Cytotoxicity (MTT) in RAW264.7 macrophages; format: cell-based; conditions: for 33 μM Mϕ % Viability: Table 2, 33 μM compound; for % viability RAW 264.7 (33 μM): Table 3; for cytotoxicity in RAW264.7 cells: up to / at 30 μM
Protocol: Cytotoxicity was measured using MTT as previously described except that the studies used 96-well plates with 100 μL of 0.3 mg/mL MTT solution was added after 24 h of treatment and then replaced after 3 h with 0.1 M HCl in isopropanol. See Aggarwal et al., J. Biol. Chem. 295(21): 7289-7300 (2020). Viability was expressed as percent absorbance at 560 nm relative to vehicle controls.

[4] = Table 2, maximal induced activity for recombinant NAPE-PLD compared to basal (100%), read-out: Emax (%)
[5] = Table 2, rNAPE-PLD activity assay, read-out: EC50
[6] = Table 3, read-out: In vitro EC50
[7] = Table 3, read-out: In vitro Emax (100% activity is baseline activity of vehicle only)
[8] = Table 1, concentration for 50% maximum activation from basal activity (no activator)

| SMILES | 10 μM Mϕ % NAPE-PLD activity [1] | Emax [2, 4] | pEC50 [2, 5] | pEC50 [2, 6] | Emax [2, 7] | Emax (95% Cl) [2] | In-cell NAPE-PLD activity in RAW 264.7 (10 μM) with PED-A1 or flame-NAPE as substrate [1] | bAC175 ([2]; Table 1) | AC50 [2, 8] | Max % bA (%) ([2]; Table 1) | 33 μM Mϕ % Viability [3] | % viability RAW 264.7 (33 μM) [3] | effect on NAPE-PLD activity in RAW264.7 cells [1] | cytotoxicity in RAW264.7 cells [3] | Emax, Nape-pld activity in RAW264.7 cells [1] | AC50 (nM) [2, 8] | EC50 (μM) ([2]; Table 2, rNAPE-PLD activity assay) |
| --- | --- | --- | --- | --- | --- | --- | --- | --- | --- | --- | --- | --- | --- | --- | --- | --- | --- |
| Cc1cccc2sc(NC(=O)C3CCN(S(=O)(=O)c4ccc(F)c(Cl)c4)CC3)nc12 [MRJ-058B] | 135% | 180% | 5.33 |  |  |  |  |  |  |  | >85% |  |  |  |  |  |  |
| Cc1cccc2sc(NC(=O)C3CCN(S(=O)(=O)c4cccnc4)CC3)nc12 [MRJ-058C] | 115% | 175% | 6.03 |  |  |  |  |  |  |  | >85% |  |  |  |  |  |  |
| Cc1cccc2sc(NC(=O)C3CCN(S(=O)(=O)c4cnn(C)c4)CC3)nc12 [MRJ-058D] | 100% | 240% | 5.82 |  |  |  |  |  |  |  | >85% |  |  |  |  |  |  |
| O=C(Nc1nc2ccccc2s1)C1CCN(S(=O)(=O)c2cccnc2)CC1 [VU203] |  |  |  | 5.47 | 183% | 1.8 (1.7-2.0) fold |  |  |  |  |  | 57% |  |  |  |  |  |
| Cc1cccc2sc(NC(=O)C3CCN(S(=O)(=O)c4ccc(F)c(Cl)c4)CC3)nc12 [VU209] |  |  |  | 5.33 | 179% | 1.9 (1.8-2.1) fold | 136% |  |  |  |  | 88% |  |  |  |  |  |
| Cc1cccc2sc(NC(=O)C3CCN(S(=O)(=O)c4cnn(C)c4)CC3)nc12 [VU210] |  |  |  | 5.82 | 239% | 2.4 (2.3-2.6) fold | 98% |  |  |  |  | 86% |  |  |  |  |  |
| Cc1ccc(C)c2sc(NC(=O)C3CCN(S(=O)(=O)c4ccc(F)cc4)CC3)nc12 [VU533] |  | < 120% |  |  |  | 2.6 (2.6-2.8) fold |  |  |  | <120% |  |  | significantly increased NAPE-PLD activity | no cytotoxicity | 2.2 fold | Not active | Inactive |
| Cc1cc(C)c2sc(NC(=O)C3CCN(S(=O)(=O)c4ccc(F)cc4)CC3)nc2c1 [VU534, N-(5,7-Dimethylbenzo[d]thiazol-2-yl)-1-((4-fluorophenyl)sulfonyl)piperidine-4-carboxamide] | 140% | 205% | 6.55 | 6.54 | 209% | 2.1 (2.0-2.2) fold | 139% | 750 nM | 0.27 µM | 195% | >85% | 89% | significantly increased NAPE-PLD activity | minimal cytotoxicity | 1.6 fold |  |  |

Further lines, with some results ahead:

| 10 μM Mϕ % NAPE-PLD activity [1] | Emax [2, 4] | pEC50 [2, 5] | pEC50 [2, 6] | Emax [2, 7] | Emax (95% Cl) [2] | In-cell NAPE-PLD activity in RAW 264.7 (10 μM) with PED-A1 or flame-NAPE as substrate [1] | bAC175 ([2]; Table 1) | AC50 [2, 8] | Max % bA (%) ([2]; Table 1) | SMILES | 33 μM Mϕ % Viability [3] | % viability RAW 264.7 (33 μM) [3] | effect on NAPE-PLD activity in RAW264.7 cells [1] | cytotoxicity in RAW264.7 cells [3] | Emax, Nape-pld activity in RAW264.7 cells [1] | AC50 (nM) [2, 8] | EC50 (μM) ([2]; Table 2, rNAPE-PLD activity assay) |
| --- | --- | --- | --- | --- | --- | --- | --- | --- | --- | --- | --- | --- | --- | --- | --- | --- | --- |
|  |  |  | ~6.03 | ~176% | 2.1 (2.0-2.2) fold | 114% |  |  |  | Cc1cccc2sc(NC(=O)C3CCN(S(=O)(=O)c4cccnc4)CC3)nc12 [VU211] |  | 88% |  |  |  |  |  |
|  |  |  | ~5.54 | ~150% | 1.7 (1.6-1.9) fold | 102% |  |  |  | Cn1cc(S(=O)(=O)N2CCC(C(=O)Nc3nc4ccccc4s3)CC2)cn1 [VU227] |  | 106% |  |  |  |  |  |
|  |  |  |  |  | <1.2 fold |  |  |  |  | O=C(Nc1nc2ccccc2s1)C1CCN(S(=O)(=O)c2ccc(F)c(Cl)c2)CC1 [VU233] |  | 111% | no significant effect; also recorded: not significant | no cytotoxicity |  |  |  |
| 105% | 190% | 6.62 | 6.62 | 189% | 1.8 (1.7-1.9) fold | 107% |  |  |  | Cc1ccc2nc(NC(=O)C3CCN(S(=O)(=O)c4ccc(F)cc4)CC3)sc2c1 [VU486] | >85% | 89% |  |  |  |  |  |
| 125% | 210% | 5.82 | 5.82 | 213% | 2.0 (2.0-2.1) fold | 123% | 1480 nM | 0.767 µM | 190% | Cc1ccc2sc(NC(=O)C3CCN(S(=O)(=O)c4ccc(F)cc4)CC3)nc2c1C [VU517] | 80% | 83% |  |  |  |  |  |
| 155% | 225% | 6.05 | 6.05 | 227% | 2.3 (2.2-2.4) fold | 155% | 2400 nM | 1.54 µM | 215% | Cc1cc2nc(NC(=O)C3CCN(S(=O)(=O)c4ccc(F)cc4)CC3)sc2cc1C [VU536] | >85% | 114% |  |  |  |  |  |
| 105% | 220% | 6.72 | 6.72 | 215% | 2.4 (2.3-2.5) fold | 107% | 1690 nM | 0.95 µM | 210% | Cc1ccc(S(=O)(=O)N2CCC(C(=O)Nc3nc4c(C)cc(C)cc4s3)CC2)cc1 [VU575] | >85% | 85% |  |  |  |  |  |
